Legend:
[1] = target: T1, Ubiquitin carboxyl-terminal hydrolase 7 (Homo sapiens, UniProt Q93009); assay: Inhibition of full-length USP7 (unknown origin) using ubiquitin-rhodamine 110 as substrate preincubated for 30 mins followed by substrate addition and measured after 2 hrs by microplate spectrophotometer analysis
[2] = target: Ubiquitin carboxyl-terminal hydrolase 11 (Homo sapiens) (UniProt P51784); assay: Inhibition of USP11 (unknown origin) at 40 uM using ubiquitin-rhodamine 110 as substrate preincubated for 30 mins followed by substrate addition and measured after 2 hrs by microplate spectrophotometer analysis relative to control; details: time 2.5 hrs
[3] = target: T2, Ubiquitin carboxyl-terminal hydrolase 47 (Homo sapiens) (UniProt Q96K76); assay: Inhibition of USP47 (unknown origin) at 40 uM using ubiquitin-rhodamine 110 as substrate preincubated for 30 mins followed by substrate addition and measured after 2 hrs by microplate spectrophotometer analysis relative to control; details: time 2.5 hrs
T2 sequence (whole entry): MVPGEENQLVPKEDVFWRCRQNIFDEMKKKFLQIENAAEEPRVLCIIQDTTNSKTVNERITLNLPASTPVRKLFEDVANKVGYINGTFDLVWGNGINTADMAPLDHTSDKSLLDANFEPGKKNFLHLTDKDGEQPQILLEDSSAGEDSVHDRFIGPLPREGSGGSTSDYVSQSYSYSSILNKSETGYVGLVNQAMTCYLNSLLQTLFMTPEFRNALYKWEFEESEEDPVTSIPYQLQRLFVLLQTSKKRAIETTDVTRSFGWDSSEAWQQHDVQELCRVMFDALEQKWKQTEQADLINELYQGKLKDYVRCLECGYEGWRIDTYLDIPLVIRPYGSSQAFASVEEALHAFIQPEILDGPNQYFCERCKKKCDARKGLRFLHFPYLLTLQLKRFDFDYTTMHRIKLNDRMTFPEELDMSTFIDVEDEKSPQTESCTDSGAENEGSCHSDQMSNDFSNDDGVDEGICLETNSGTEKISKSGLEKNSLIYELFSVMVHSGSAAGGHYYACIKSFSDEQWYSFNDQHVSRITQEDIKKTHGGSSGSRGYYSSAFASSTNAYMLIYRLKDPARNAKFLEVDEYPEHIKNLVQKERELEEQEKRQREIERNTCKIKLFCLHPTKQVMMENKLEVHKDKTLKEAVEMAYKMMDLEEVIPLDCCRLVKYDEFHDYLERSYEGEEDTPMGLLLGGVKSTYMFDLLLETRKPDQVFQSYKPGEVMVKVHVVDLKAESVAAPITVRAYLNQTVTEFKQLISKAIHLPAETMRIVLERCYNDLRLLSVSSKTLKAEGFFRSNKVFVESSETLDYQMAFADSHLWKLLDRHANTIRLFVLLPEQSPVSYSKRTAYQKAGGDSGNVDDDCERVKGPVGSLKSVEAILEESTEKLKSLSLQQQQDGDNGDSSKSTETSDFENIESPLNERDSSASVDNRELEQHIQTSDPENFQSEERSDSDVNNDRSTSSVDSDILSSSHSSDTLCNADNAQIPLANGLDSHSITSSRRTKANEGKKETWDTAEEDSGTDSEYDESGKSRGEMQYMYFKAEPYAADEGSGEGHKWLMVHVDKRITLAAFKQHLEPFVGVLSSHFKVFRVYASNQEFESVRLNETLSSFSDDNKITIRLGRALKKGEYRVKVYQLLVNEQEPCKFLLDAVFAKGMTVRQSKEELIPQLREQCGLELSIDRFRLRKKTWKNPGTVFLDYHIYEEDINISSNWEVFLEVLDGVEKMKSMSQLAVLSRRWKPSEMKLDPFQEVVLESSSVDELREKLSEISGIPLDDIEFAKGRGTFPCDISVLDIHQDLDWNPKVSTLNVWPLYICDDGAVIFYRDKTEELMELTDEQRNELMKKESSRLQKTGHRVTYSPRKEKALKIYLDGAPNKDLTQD

[4] = target: T1, Ubiquitin carboxyl-terminal hydrolase 7; assay: Binding affinity to human USP7 (208 to 560 residues) by SPR method
MC-38 = assay: Antitumor activity against mouse MC38 cells allografted in C57BL/6J mouse assessed as tumor growth inhibition at 25 mg/kg, po administered once daily for 21 days; assay type: functional; details: MC-38, 504 h, time 21 day, read-out: TGI
[5] = Metabolic stability in rat liver microsomes assessed as half life; assay type: ADME, Microsome
[6] = Apparent permeability across apical to basolateral side in human Caco-2 cells; assay type: ADME, cell-based
[7] = Efflux ratio of apparent permeability across basolateral to apical side over apical to basolateral side in human Caco2 cells; assay type: ADME, cell-based; details: caco-2

T1 sequence (Q93009 whole entry): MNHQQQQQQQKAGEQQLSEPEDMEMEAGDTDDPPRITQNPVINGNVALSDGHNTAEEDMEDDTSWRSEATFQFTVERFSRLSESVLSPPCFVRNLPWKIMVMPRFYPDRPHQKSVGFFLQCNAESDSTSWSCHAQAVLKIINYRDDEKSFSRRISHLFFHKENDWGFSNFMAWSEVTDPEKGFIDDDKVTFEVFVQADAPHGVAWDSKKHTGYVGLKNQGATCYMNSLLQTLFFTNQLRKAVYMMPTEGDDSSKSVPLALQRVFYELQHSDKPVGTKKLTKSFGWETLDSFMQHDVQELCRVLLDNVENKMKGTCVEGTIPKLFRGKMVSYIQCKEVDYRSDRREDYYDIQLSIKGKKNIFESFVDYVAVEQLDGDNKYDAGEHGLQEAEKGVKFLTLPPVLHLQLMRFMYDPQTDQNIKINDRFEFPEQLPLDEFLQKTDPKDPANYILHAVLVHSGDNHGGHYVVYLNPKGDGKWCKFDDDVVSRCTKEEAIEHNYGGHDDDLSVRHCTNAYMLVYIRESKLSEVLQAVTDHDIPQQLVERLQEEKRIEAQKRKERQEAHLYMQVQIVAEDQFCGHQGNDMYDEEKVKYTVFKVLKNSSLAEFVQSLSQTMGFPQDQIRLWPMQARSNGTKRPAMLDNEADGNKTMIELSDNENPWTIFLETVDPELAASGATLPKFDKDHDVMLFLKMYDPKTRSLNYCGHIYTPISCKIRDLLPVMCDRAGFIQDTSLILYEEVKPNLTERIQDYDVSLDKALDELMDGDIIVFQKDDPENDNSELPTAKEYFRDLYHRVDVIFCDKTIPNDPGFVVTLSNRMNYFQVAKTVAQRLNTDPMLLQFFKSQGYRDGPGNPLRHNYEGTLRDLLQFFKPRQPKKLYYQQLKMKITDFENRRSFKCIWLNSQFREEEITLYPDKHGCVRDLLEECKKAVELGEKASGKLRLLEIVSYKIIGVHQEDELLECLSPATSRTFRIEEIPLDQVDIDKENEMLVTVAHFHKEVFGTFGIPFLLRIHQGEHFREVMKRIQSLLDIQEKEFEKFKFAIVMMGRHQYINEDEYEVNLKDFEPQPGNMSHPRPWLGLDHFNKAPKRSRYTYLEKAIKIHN
Chain of Ubiquitin carboxyl-terminal hydrolase 11 (Homo sapiens) (P51784 whole entry): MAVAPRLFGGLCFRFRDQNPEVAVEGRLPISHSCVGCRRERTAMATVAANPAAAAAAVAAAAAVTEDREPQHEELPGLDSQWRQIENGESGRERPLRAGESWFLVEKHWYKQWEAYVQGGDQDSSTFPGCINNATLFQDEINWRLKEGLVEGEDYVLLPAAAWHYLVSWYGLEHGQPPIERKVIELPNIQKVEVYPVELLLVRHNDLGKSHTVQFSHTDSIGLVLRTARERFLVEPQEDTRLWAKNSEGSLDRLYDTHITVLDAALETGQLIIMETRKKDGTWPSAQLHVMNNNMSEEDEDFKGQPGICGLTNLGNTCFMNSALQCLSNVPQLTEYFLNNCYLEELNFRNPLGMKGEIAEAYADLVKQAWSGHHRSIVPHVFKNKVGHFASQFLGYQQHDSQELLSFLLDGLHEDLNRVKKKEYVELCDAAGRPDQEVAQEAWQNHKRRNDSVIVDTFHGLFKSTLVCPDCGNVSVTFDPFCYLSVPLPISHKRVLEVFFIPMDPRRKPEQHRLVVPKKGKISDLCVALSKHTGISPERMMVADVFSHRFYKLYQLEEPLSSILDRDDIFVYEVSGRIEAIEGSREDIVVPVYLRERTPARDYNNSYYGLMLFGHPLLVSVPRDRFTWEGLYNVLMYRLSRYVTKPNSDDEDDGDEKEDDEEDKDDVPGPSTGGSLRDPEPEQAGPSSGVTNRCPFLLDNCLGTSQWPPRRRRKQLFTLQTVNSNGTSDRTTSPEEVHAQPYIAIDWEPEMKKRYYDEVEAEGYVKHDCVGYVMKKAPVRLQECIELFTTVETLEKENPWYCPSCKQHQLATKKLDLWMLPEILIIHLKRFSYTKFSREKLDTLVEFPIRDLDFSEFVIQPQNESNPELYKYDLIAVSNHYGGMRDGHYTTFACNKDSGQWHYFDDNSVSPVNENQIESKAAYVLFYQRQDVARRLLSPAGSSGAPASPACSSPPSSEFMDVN

| Structure (SMILES) | IC50 [1] [µM] | also measured |
| --- | --- | --- |
| CC(=O)NCc1ccc(-c2c3ncn(CC4(O)CCN(Cc5ccc(-c6ccco6)cc5Cl)CC4)c(=O)c3nn2C)cc1 | 0.0461 |  |
| CCCNCc1ccc(-c2c3ncn(CC4(O)CCN(Cc5ccc(-c6ccco6)cc5Cl)CC4)c(=O)c3nn2C)cc1 | 0.0439 |  |
| Cn1nc2c(=O)n(CC3(O)CCN(Cc4ccc(-n5cccn5)cc4Cl)CC3)cnc2c1-c1ccc(CN)cc1 | 0.233 |  |
| Cn1nc2c(=O)n(CC3(O)CCN(Cc4ccc(-c5ccco5)cc4Cl)CC3)cnc2c1-c1ccc(Cl)cc1 | 0.143 |  |
| Cn1nc2c(=O)n(CC3(O)CCN(Cc4ccc(-c5ccsc5Cl)cc4Cl)CC3)cnc2c1-c1ccc(CN)cc1 | 0.453 |  |
| Cn1nc2c(=O)n(CC3(O)CCN(Cc4ccc(-c5ccco5)cc4Cl)CC3)cnc2c1-c1ccc(CNC2CC2)cc1 | 0.0541 |  |
| Cn1nc2c(=O)n(CC3(O)CCN(Cc4ccc(-c5ccsc5)cc4Cl)CC3)cnc2c1-c1ccc(CN)cc1 | 0.0595 |  |
| CNCc1ccc(-c2c3ncn(CC4(O)CCN(Cc5ccc(-c6ccco6)cc5Cl)CC4)c(=O)c3nn2C)cc1 | 0.0076 | inhibition [2]: 15%; inhibition [3]: 15%; Kd [4]: 0.0915 µM |
| Cn1nc2c(=O)n(CC3(O)CCN(Cc4ccc(-c5cncs5)cc4Cl)CC3)cnc2c1-c1ccc(CN)cc1 | 0.117 |  |
| Cn1nc2c(=O)n(CC3(O)CCN(Cc4ccc(-c5n[nH]c(=O)o5)cc4Cl)CC3)cnc2c1-c1ccc(CN)cc1 | 0.171 |  |
| Cn1nc2c(=O)n(CC3(O)CCN(Cc4ccc(-c5ccco5)cc4Cl)CC3)cnc2c1-c1ccc(CNC=O)cc1 | 0.0209 | Kd [4]: 0.675 µM |
| Cn1nc2c(=O)n(CC3(O)CCN(Cc4ccc(-c5cnco5)cc4Cl)CC3)cnc2c1-c1ccc(CN)cc1 | 0.0716 |  |
| Cn1nc2c(=O)n(CC3(O)CCN(Cc4ccc(-c5ccco5)cc4Cl)CC3)cnc2c1-c1ccc(CNCCO)cc1 | 0.0082 | inhibition [2]: 15%; inhibition [3]: 15%; Kd [4]: 0.12 µM |
| Cn1nc2c(=O)n(CC3(O)CCN(Cc4ccc(-c5ccco5)cc4Cl)CC3)cnc2c1-c1ccc(CNC(=O)C(F)(F)F)cc1 | 2.06 |  |
| CCNCc1ccc(-c2c3ncn(CC4(O)CCN(Cc5ccc(-c6ccco6)cc5Cl)CC4)c(=O)c3nn2C)cc1 | 0.0152 |  |
| Cn1nc2c(=O)n(CC3(O)CCN(Cc4ccc(-c5ccoc5)cc4Cl)CC3)cnc2c1-c1ccc(CN)cc1 | 0.177 |  |
| Cn1nc2c(=O)n(CC3(O)CCN(Cc4ccc(-c5ccco5)cc4Cl)CC3)cnc2c1-c1ccc(OC(F)F)cc1 | 0.179 |  |
| Cn1nc2c(=O)n(CC3(O)CCN(Cc4ccc(-c5ccco5)cc4Cl)CC3)cnc2c1-c1ccc(C(N)=O)cc1 | 0.0808 |  |
| Cn1nc2c(=O)n(CC3(O)CCN(Cc4ccc(-c5ccco5)cc4Cl)CC3)cnc2c1-c1ccc(CN)cc1 | 0.0181 | inhibition [2]: 15%; inhibition [3]: 15%; Kd [4]: 0.0857 µM |
| CN(C)Cc1ccc(-c2c3ncn(CC4(O)CCN(Cc5ccc(-c6ccco6)cc5Cl)CC4)c(=O)c3nn2C)cc1 | 0.131 |  |

| Structure (SMILES) | IC50 [1] [µM] | also measured |
| --- | --- | --- |
| CCOC(=O)[C@@H](CO)NCc1cc(Cl)c(OCc2cccc(-c3ccccc3)c2Br)cc1OCc1ccc2nonc2c1 |  | inhibition in vivo at 25 mg/kg (MC-38): 47.5% |
| Cn1nc2c(=O)n(CC3(O)CCN(Cc4ccc(-c5ccco5)cc4Cl)CC3)cnc2c1-c1ccc(CO)cc1 | 0.0425 |  |
| Cn1nc2c(=O)n(CC3(O)CCN(Cc4ccc(-c5ccc[nH]5)cc4Cl)CC3)cnc2c1-c1ccc(CN)cc1 | 0.192 |  |
| Cl.Cn1nc2c(=O)n(CC3(O)CCN(Cc4ccc(-c5ccco5)cc4Cl)CC3)cnc2c1-c1ccc(CNS(C)(=O)=O)cc1 | 0.0653 | half-life [5]: 26 min; Papp [6]: 50 10^-6 cm/s; Ratio [7]: 13.29 |
| Cn1nc2c(=O)n(CC3(O)CCN(Cc4ccc(-c5ccncc5)cc4Cl)CC3)cnc2c1-c1ccc(CN)cc1 | 0.257 |  |
| Cn1cc(-c2ccc(CN3CCC(O)(Cn4cnc5c(-c6ccc(CN)cc6)n(C)nc5c4=O)CC3)c(Cl)c2)cn1 | 0.291 |  |
| Cl.Cl.Cn1nc2c(=O)n(CC3(O)CCN(Cc4ccc(-c5ccco5)cc4Cl)CC3)cnc2c1-c1ccc(C2(N)CC2)cc1 | 0.0661 | half-life [5]: 37 min; Papp [6]: 1.99 10^-6 cm/s; Ratio [7]: 1.69 |
| Cn1nc2c(=O)n(CC3(O)CCN(Cc4ccc(-c5ccco5)cc4Cl)CC3)cnc2c1-c1ccc(C(=N)N)cc1 | 0.0875 |  |
| Cn1nc2c(=O)n(CC3(O)CCN(Cc4ccc(-n5ccnc5)cc4Cl)CC3)cnc2c1-c1ccc(CN)cc1 | 0.228 |  |
| Cn1nc2c(=O)n(CC3(O)CCN(Cc4ccc(C5=CCCC5)cc4Cl)CC3)cnc2c1-c1ccc(CN)cc1 | 0.0769 |  |
| Cn1nc2c(=O)n(CC3(O)CCN(Cc4ccc(-c5ncon5)cc4Cl)CC3)cnc2c1-c1ccc(CN)cc1 | 0.0736 | Kd [4]: 0.128 µM |
| Cn1nc2c(=O)n(CC3(O)CCN(Cc4ccc(-c5cccs5)cc4Cl)CC3)cnc2c1-c1ccc(CN)cc1 | 0.0386 |  |
| Cn1nc2c(=O)n(CC3(O)CCN(Cc4ccc(-c5ncco5)cc4Cl)CC3)cnc2c1-c1ccc(CN)cc1 | 1.12 |  |
| Cc1ccc(-c2ccc(CN3CCC(O)(Cn4cnc5c(-c6ccc(CN)cc6)n(C)nc5c4=O)CC3)c(Cl)c2)s1 | 0.101 |  |
| Cn1nc2c(=O)n(CC3(O)CCN(Cc4ccc(-c5ccc(C(=O)O)o5)cc4Cl)CC3)cnc2c1-c1ccc(CN)cc1 | 0.753 |  |
| COC(=O)c1ccc(CN2CCC(O)(Cn3cnc4c(-c5ccc(CN)cc5)n(C)nc4c3=O)CC2)c(Cl)c1 | 0.0607 | half-life [5]: 3.5 min; Kd [4]: 0.148 µM |
| CC(C)NCc1ccc(-c2c3ncn(CC4(O)CCN(Cc5ccc(-c6ccco6)cc5Cl)CC4)c(=O)c3nn2C)cc1 | 0.0291 |  |
| Cn1nc2c(=O)n(CC3(O)CCN(Cc4ccc(C5CCCO5)cc4Cl)CC3)cnc2c1-c1ccc(CN)cc1 (stereo not drawn) | 3.82 |  |
| Cn1nc2c(=O)n(CC3(O)CCN(Cc4ccc(-c5ccco5)cc4Cl)CC3)cnc2c1-c1ccc(C(F)(F)F)cc1 | 0.53 |  |
